# Measured values taken from patent US9993490B2, “Phosphonic acid compounds and screening method” (The Board of Trustees of The University of Illinois, priority 2014, dated 2018).
# Tests used:
# Escherichia coli WM6242 = test: Growth inhibition in liquid culture; assay type: cell-based; conditions: upon induction of phosphonate uptake machinery (1 mM IPTG); 100 ug ml^-1
# Experimental: (§1) Antibiotic activity for purified PnPs was examined by growth inhibition in liquid cultures. Salmonella typhimurium LT2, Escherichia coli WM6242 (±1 mM IPTG), and Pseudomonas aeruginosa K were grown in M9-glucose. Bacillus subtilis subsp. spizizenii ATCC 6633, Staphylococcus aureus ATCC 25923, and Mycobacterium smegmatis NRRL B-14616 (37° C.) were cultivated in R2A. 96-Well plates containing 150 μL of media was inoculated with 1.5 uL of the appropriate cultures (OD600=0.4-0.5). Kanamycin, aminomethylphosphonate, 1-hydroxy-2-aminoethylphosphonate, (R)-2,3-dihydroxypropylphosphonate, argolaphos A, and argolaphos B were added to a final concentration of 100 ug ml^−1. After growth for 16 hours (24 for M. smegmatis) in a shaking incubator (200 rpm), cell densities recorded on a Tecan microplate reader.
# [1] = test system: Mycobacterium smegmatis NRRL B-14616; test: Growth inhibition in liquid culture; assay type: cell-based; conditions: 100 ug ml^-1, R2A, 37° C., 24 hours
# Experimental: as §1
# [2] = Stability in the course of purification; assay type: physicochemical; conditions: fraction 2 of S. durhamensis NRRL B-3309 extract
# Experimental: The liquid was concentrated to dryness and dissolved in 200 mL of 0.1% aqueous acetic acid, which was then applied to a 100 mL Fe(III) IMAC gravity column. Before sample loading the column was equilibrated with 0.1% acetic acid. After sample loading, the column was washed successively with 5 volumes of 0.1% acetic acid and 0.1% acetic acid in 20% acetonitrile (ACN). The materials were eluted from the column with 100 mM aqueous NH4HCO3. The eluate (200 mL) from the iron IMAC column was dried with a rotary evaporator as fraction 1. The unabsorbed sample was also dried as fraction 2.
compound,measurement,setting,value
"NCC(O)OP(=O)(O)O (stereo not drawn) [Compound 11, 1-hydroxy-2-aminoethylphosphoric acid]",antibiotic activity against E. coli,Escherichia coli WM6242,effective antibiotic
"O=P(O)(O)C[C@H](O)CO [Compound 4, (R)-2,3-dihydroxypropylphosphonic acid]",growth inhibition of Mycobacterium smegmatis,[1],slightly inhibited growth
"cyclic 2,3-dihydroxypropanoic acid [Compound 6]",stability during purification,[2],unstable and easily decomposed
